Here are results for 34 compounds from ChEMBL document CHEMBL4342414, “Activity of 2,6,9-trisubstituted purines as potent PDGFRα kinase inhibitors with antileukaemic activity” (Eur J Med Chem, 2019).

A value given as a limit tells only on which side of the number the result lay.

In one data set the test system is K562. Description: Cytotoxicity against human K562 cells assessed as growth inhibition after 72 hrs by resazurin dye-based fluorescence analysis. Type of data set: functional. The following applies: K562, 72 h. A general note: The colour change of resazurin is a common sign of viable cells or microbes.
In another data set the test system is HCC827. Description: Cytotoxicity against human HCC827 cells assessed as growth inhibition after 72 hrs by resazurin dye-based fluorescence analysis. Type of data set: functional. The following applies: HCC827, 72 h.
Data set [1] can be described thus: Cytotoxicity against human BJ cells assessed as growth inhibition after 72 hrs by resazurin dye-based fluorescence analysis. Type of data set: cell-based.
A short description of data set [2]: Cytotoxicity against human CEM cells assessed as growth inhibition after 72 hrs by resazurin dye-based fluorescence analysis. Type of data set: cell-based. The following applies: CEM (CCRF-CEM) cells.
The next data set relates to EOL1. Description: Cytotoxicity against FIP1L1-PDGFRA positive human EOL-1 cells assessed as growth inhibition after 72 hrs by resazurin dye-based fluorescence analysis. Type of data set: functional. The following applies: EOL1, 72 h.

As to `N[C@H]1CC[C@H](Nc2nc(Nc3ccc(-c4cccs4)nc3)c3ncn(C4CCCC4)c3n2)CC1`, the GI50 with K562 stood at 0.574 µM; in the data set with HCC827, 0.652 µM; with EOL1, 0.021 µM. The results for the concentration for 50% growth inhibition (GI50) at 72 h in data set [1] and in data set [2] were 2.94 µM and 0.477 µM, respectively.
In the case of `OCCCCNc1nc(Nc2ccc(Oc3nccs3)cc2)c2ncn(C3CCCC3)c2n1`, the GI50 with K562 was 6.08 µM; in the data set with HCC827 it was 6.05 µM; in the data set on EOL1, 0.489 µM. Further, the GI50 at 72 h stood at 23.5 µM in data set [1] and 13.4 µM in data set [2].
Take `NCCCCNc1nc(Nc2cccc(CN3CCOCC3)c2)c2ncn(C3CCCC3)c2n1`: the concentration for 50% growth inhibition (GI50) turned out to be 8.4 µM in the data set with K562, 5.37 µM with HCC827 and 0.061 µM in the data set on EOL1. Also, the GI50 at 72 h in data set [1] is 22 µM; in data set [2], 8.19 µM.
For `N[C@H]1CC[C@H](Nc2nc(Nc3cccc(CN4CCOCC4)c3)c3ncn(C4CCCC4)c3n2)CC1`, the GI50 was 1.28 µM in the data set with K562, 1.19 µM with HCC827 and 0.012 µM in the data set with EOL1. For the same compound, the GI50 at 72 h stood at 14.7 µM in data set [1] and 1.36 µM in data set [2].
The like results for `N[C@H]1CC[C@H](Nc2nc(Nc3cccc(CN4CCOCC4)c3)c3ncn(C4CCC(O)C4)c3n2)CC1` (some centres undefined) were, in that order, 1.85 µM, 1.67 µM, 0.009 µM, greater than 40 µM and 1.65 µM.
The corresponding values for `N[C@H]1CC[C@H](Nc2nc(Nc3ccc(N4CCN(Cc5ccccc5)CC4)cc3)c3ncn(C4CCC(O)C4)c3n2)CC1` (some centres undefined) are 0.652 µM, 0.84 µM, 0.011 µM, 16.9 µM and 0.54 µM.
The corresponding values for `COc1ccc(-c2ccc(Nc3nc(N[C@H]4CC[C@H](N)CC4)nc4c3ncn4C3CCCC3)cn2)cc1` are 0.698 µM, 0.581 µM, 0.025 µM, 7.23 µM and 0.544 µM.
For the compound `OCCCCNc1nc(Nc2ccc(CN3CCOCC3)cc2)c2ncn(C3CCCC3)c2n1`, the 50% growth inhibitory concentration (GI50) came to 2.51 µM with HCC827 and 0.202 µM with EOL1. The GI50 at 72 h in data set [1] is 22.8 µM; in data set [2], 3.48 µM.
Take `N[C@H]1CC[C@H](Nc2nc(Nc3ccc(-n4cncn4)cc3)c3ncn(C4CCCC4)c3n2)CC1`: the figures for the concentration for 50% growth inhibition (GI50) in the data set with K562, in the data set with HCC827 and in the data set on EOL1 were 1.55 µM, 1.42 µM and 0.008 µM, respectively. Also, the GI50 at 72 h in data set [1] turned out to be 14.7 µM; in data set [2] it was 0.871 µM.
The like results for `NCCCCNc1nc(Nc2ccc(CN3CCOCC3)cc2)c2ncn(C3CCCC3)c2n1` were, in that order, 2.79 µM, 2.04 µM, 0.049 µM, 9.54 µM and 3.04 µM.
The corresponding values for `OCCCCNc1nc(Nc2cccc(CN3CCOCC3)c2)c2ncn(C3CCCC3)c2n1` are 30.4 µM, 8.13 µM, 0.282 µM, 25.7 µM and 11.1 µM.
As to `N[C@H]1CC[C@H](Nc2nc(Nc3ccc(N4CCN(Cc5ccccc5)CC4)cc3)c3ncn(CCCO)c3n2)CC1`, the GI50 in the data set on K562 came to 2.67 µM; in the data set on HCC827, 2.38 µM; with EOL1, 0.058 µM. The GI50 at 72 h is 16.5 µM in data set [1] and 4.56 µM in data set [2].
The corresponding values for `N[C@H]1CC[C@H](Nc2nc(Nc3ccc(CN4CCOCC4)cc3)c3ncn(C4CCC(O)C4)c3n2)CC1` (some centres undefined) are 1.04 µM, 0.801 µM, 0.008 µM, greater than 40 µM and 1.42 µM.
The like results for `OCCCCNc1nc(Nc2ccc(CN3CCOCC3)cc2)c2ncn(CCCO)c2n1` were, in that order, 4.74 µM, 10.6 µM, 0.294 µM, 20.8 µM and 5.17 µM.
`N[C@H]1CC[C@H](Nc2nc(Nc3ccc(N4CCN(Cc5ccccc5)CC4)cc3)c3ncn(C4CCCC4)c3n2)CC1`: the concentration for 50% growth inhibition (GI50) in the data set on K562 came out at 0.97 µM; with HCC827, 0.918 µM; in the data set on EOL1, 0.022 µM. Besides, the GI50 at 72 h is 10 µM in data set [1] and 0.582 µM in data set [2].
As for `N[C@H]1CC[C@H](Nc2nc(Nc3ccc(Oc4nccs4)cc3)c3ncn(C4CCCC4)c3n2)CC1`, the concentration for 50% growth inhibition (GI50) was determined as 0.676 µM in the data set with K562, 0.692 µM with HCC827 and 0.008 µM in the data set on EOL1. Moreover, the results for the GI50 at 72 h in data set [1] and in data set [2] were 6.85 µM and 0.65 µM, respectively.
Consider `OCCCCNc1nc(Nc2ccc(N3CCN(Cc4ccccc4)CC3)cc2)c2ncn(C3CCC(O)C3)c2n1` (centres undefined), for which the GI50 is 3.73 µM in the data set on K562, 3.96 µM with HCC827 and 0.223 µM with EOL1. For the same compound, the values for the GI50 at 72 h in data set [1] and in data set [2] were 23.8 µM and 9.09 µM, respectively.
The like results for `COc1ccccc1-c1ccc(Nc2nc(N[C@H]3CC[C@H](N)CC3)nc3c2ncn3C2CCCC2)cn1` were, in that order, 0.553 µM, 0.638 µM, 0.014 µM, 6.2 µM and 0.46 µM.
The corresponding values for `Nc1ccccc1-c1ccc(Nc2nc(N[C@H]3CC[C@H](N)CC3)nc3c2ncn3C2CCCC2)cc1` are 1.07 µM, 0.81 µM, 0.018 µM, 12.5 µM and 0.677 µM.
As for `CC(C)(C)c1cc(NC(=O)Nc2ccc(-c3cn4c(n3)sc3cc(OCCN5CCOCC5)ccc34)cc2)no1` [QUIZARTINIB], the GI50 was greater than 40 µM in the data set with K562, greater than 40 µM in the data set with HCC827 and less than 0.0005 µM in the data set on EOL1. Further, the GI50 at 72 h in data set [1] and in data set [2] was greater than 40 µM each time.
Take `N[C@H]1CC[C@H](Nc2nc(Nc3ccc(-c4ccccc4O)cc3)c3ncn(C4CCCC4)c3n2)CC1`: the 50% growth inhibitory concentration (GI50) in the data set with K562 came to 2.08 µM; in the data set on HCC827, 2.53 µM; in the data set with EOL1, 0.053 µM. Also, the GI50 at 72 h in data set [1] came out at 9.59 µM; in data set [2], 1.49 µM.
In the case of `N[C@H]1CC[C@H](Nc2nc(Nc3ccc(Oc4ncccn4)cc3)c3ncn(C4CCCC4)c3n2)CC1`, the figures for the GI50 in the data set with K562, with HCC827 and with EOL1 were 2.27 µM, 2.72 µM and 0.02 µM, respectively. In addition, the results for the GI50 at 72 h in data set [1] and in data set [2] were 16.9 µM and 1.15 µM, respectively.
As for `NCCCCNc1nc(Nc2ccc(Oc3nccs3)cc2)c2ncn(C3CCCC3)c2n1`, the GI50 turned out to be 5.98 µM in the data set on K562, 6.31 µM in the data set on HCC827 and 0.118 µM in the data set on EOL1. For the same compound, the GI50 at 72 h in data set [1] was determined as 18.6 µM; in data set [2] it was 8.64 µM.
The corresponding values for `OCCCNc1nc(Nc2ccc(Oc3nccs3)cc2)c2ncn(C3CCCC3)c2n1` are 11.3 µM, 6.49 µM, 0.442 µM, 34.1 µM and 23 µM.
The like results for `COc1ccccc1-c1ccc(Nc2nc(N[C@H]3CC[C@H](N)CC3)nc3c2ncn3C2CCCC2)cc1` were, in that order, 2.32 µM, 2.3 µM, 0.117 µM, 22.8 µM and 2.35 µM.
For `NCCCCNc1nc(Nc2ccc(CN3CCOCC3)cc2)c2ncn(C3CCC(O)C3)c2n1` (centres undefined), the results for the GI50 in the data set on K562, with HCC827 and with EOL1 were 2.23 µM, 3.23 µM and 0.036 µM, respectively. The GI50 at 72 h in data set [1] turned out to be 4.9 µM; in data set [2], 5.51 µM.
For `N[C@H]1CC[C@H](Nc2nc(Nc3cccc(CN4CCOCC4)c3)c3ncn(CCCO)c3n2)CC1`, the figures for the GI50 in the data set on K562, in the data set on HCC827 and with EOL1 were greater than 40 µM, 25.5 µM and 0.075 µM, respectively. For the same compound, the GI50 at 72 h in data set [1] and in data set [2] was greater than 40 µM throughout.
For the compound `NCCCCNc1nc(Nc2ccc(N3CCN(Cc4ccccc4)CC3)cc2)c2ncn(C3CCC(O)C3)c2n1` (centres undefined), the GI50 with K562 was determined as 1.63 µM; in the data set on HCC827 it was 2.29 µM; in the data set on EOL1 it was 0.046 µM. Further, the GI50 at 72 h in data set [1] came to 13.2 µM; in data set [2] it was 3.67 µM.
The like results for `NCCCCNc1nc(Nc2ccc(CN3CCOCC3)cc2)c2ncn(CCCO)c2n1` were, in that order, 9.37 µM, 19 µM, 0.138 µM, 35 µM and 8.2 µM.
The corresponding values for `N[C@H]1CC[C@H](Nc2nc(Nc3ccc(CN4CCOCC4)cc3)c3ncn(CCCO)c3n2)CC1` are 9.93 µM, 18.4 µM, 0.164 µM, greater than 40 µM and 34.5 µM.
For the compound `c1csc(Oc2ccc(Nc3nc(N4CCOCC4)nc4c3ncn4C3CCCC3)cc2)n1`, the 50% growth inhibitory concentration (GI50) was greater than 40 µM in the data set on K562, 15.4 µM in the data set on HCC827 and 0.347 µM with EOL1. Further, the 50% growth inhibitory concentration (GI50) at 72 h in data set [1] and in data set [2] was greater than 40 µM each time.
With `N[C@H]1CC[C@H](Nc2nc(Nc3ccc(Oc4ccc(Br)cn4)cc3)c3ncn(C4CCCC4)c3n2)CC1`, the 50% growth inhibitory concentration (GI50) in the data set with K562 is 6.08 µM; in the data set on HCC827, 3.73 µM; with EOL1, 0.122 µM. Besides, the GI50 at 72 h was greater than 40 µM in data set [1] and 6.16 µM in data set [2].
The like results for `N[C@H]1CC[C@H](Nc2nc(Nc3ccc(-c4ccccc4O)nc3)c3ncn(C4CCCC4)c3n2)CC1` were, in that order, 0.5 µM, 0.653 µM, 0.085 µM, 6.35 µM and 0.617 µM.
Regarding `NCCCCNc1nc(Nc2ccc(N3CCN(Cc4ccccc4)CC3)cc2)c2ncn(CCCO)c2n1`, the concentration for 50% growth inhibition (GI50) amounted to 2.57 µM in the data set with K562, 6.7 µM in the data set with HCC827 and 0.158 µM in the data set with EOL1. The 50% growth inhibitory concentration (GI50) at 72 h in data set [1] was determined as 28.5 µM; in data set [2], 7.57 µM.

One may read the GI50 as the concentration giving 50% growth inhibition.
